Assay results: patent publication US12077503B2, “Substituted cyclic amides and their use as herbicides” (FMC CORPORATION, priority 2015, dated 2024)

Legend:
Type in all cases: in vivo
[1] = test system: ducksalad (Heteranthera limosa); assay: Test B flooded paddy test; settings: Heteranthera limosa, 360 h, Flood, 250 g ai/ha; visually evaluated after 13 to 15 d; read-out: Plant response rating, Ducksalad (0 to 100 scale where 0 is no effect and 100 is complete control)
Procedure, shortened: (§1)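 Greenhouse paddy pots with 2-leaf stage plants received compound by direct addition to floodwater 3 cm deep, kept at that level. Scored visually at 13–15 d versus controls (0 no effect; 100 complete control).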

rice (Oryra sativa) = assay: Test B flooded paddy test; settings: Oryza sativa, 360 h, Flood, 250 g ai/ha; visually evaluated after 13 to 15 d; read-out: Plant response rating, Rice (0 to 100 scale where 0 is no effect and 100 is complete control)
Procedure, shortened: as §1

[2] = test system: barnyardgrass (Echinochloa crus-galli); assay: Test B flooded paddy test; settings: Echinochloa crus-galli, 360 h, Flood, 250 g ai/ha; visually evaluated after 13 to 15 d; read-out: Plant response rating, Barnyardgrass (0 to 100 scale where 0 is no effect and 100 is complete control)
Procedure, shortened: as §1

[3] = test system: sedge, umbrella (small-flower umbrella sedge, Cyperus difformis); assay: Test B flooded paddy test; settings: Cyperus difformis, 360 h, Flood, 250 g ai/ha; visually evaluated after 13 to 15 d; read-out: Plant response rating, Sedge, Umbrella (0 to 100 scale where 0 is no effect and 100 is complete control)
Procedure, shortened: as §1

[4] = test system: blackgrass (Alopecurus myosuroides); assay: Test A postemergence; settings: Alopecurus myosuroides, post-emergence, 240 h, Postemergence, read-out: Blackgrass plant response rating (0 to 100 scale)
Procedure, shortened: (§2)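 Seeded soil received test chemicals as a preemergence directed spray, and seedlings at one to two leaves, 2–10 cm tall, received them postemergence, in a non-phytotoxic, surfactant-containing solvent mixture. Pots were held in a greenhouse for approximately 10 d, then rated for injury from 0, no effect, to 100, complete control.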

corn (Zea mays) = assay: Test A postemergence; settings: Zea mays, post-emergence, 240 h, Postemergence, read-out: Corn plant response rating (0 to 100 scale)
Procedure, shortened: as §2

[5] = test system: ragweed (common ragweed, Ambrosia elatior); assay: Test A postemergence; settings: Ambrosia artemisiifolia, post-emergence, 240 h, Postemergence, read-out: Ragweed plant response rating (0 to 100 scale)
Procedure, shortened: as §2

[6] = test system: barnyardgrass (Echinochloa crus-galli); assay: Test A postemergence; settings: Echinochloa crus-galli, post-emergence, 240 h, Postemergence
Procedure, shortened: as §2

[7] = test system: ryegrass, Italian (Italian ryegrass, Lolium multiflorum); assay: Test A postemergence; settings: Lolium multiflorum, post-emergence, 240 h, Postemergence, read-out: Ryegrass, Italian plant response rating (0 to 100 scale)
Procedure, shortened: as §2

Kochia (Kochia scoparia) [8] = assay: Test A postemergence; settings: Bassia scoparia, post-emergence, 240 h, Postemergence, read-out: Kochia plant response rating (0 to 100 scale)
Procedure, shortened: as §2

[9] = test system: pigweed (Amaranthus retroflexus); assay: Test A postemergence; settings: Amaranthus retroflexus, post-emergence, 240 h, Postemergence, read-out: Pigweed plant response rating (0 to 100 scale)
Procedure, shortened: as §2

[10] = test system: wheat (Triticum aestivum); assay: Test A postemergence; settings: Triticum aestivum, post-emergence, 240 h, Postemergence, read-out: Wheat plant response rating (0 to 100 scale)
Procedure, shortened: as §2

[11] = test system: giant foxtail (Setaria faberii); assay: Test A postemergence; settings: Setaria faberi, post-emergence, 240 h, Postemergence, read-out: Foxtail, Giant plant response rating (0 to 100 scale)
Procedure, shortened: as §2

[12] = test system: ragweed (common ragweed, Ambrosia elatior); assay: Test A preemergence; settings: Ambrosia artemisiifolia, pre-emergence, 240 h, Preemergence
Procedure, shortened: as §2

[13] = test system: barnyardgrass (Echinochloa crus-galli); assay: Test A preemergence; settings: Echinochloa crus-galli, pre-emergence, 240 h, Preemergence
Procedure, shortened: as §2

[14] = test system: ryegrass, Italian (Italian ryegrass, Lolium multiflorum); assay: Test A preemergence; settings: Lolium multiflorum, pre-emergence, 240 h, Preemergence
Procedure, shortened: as §2

Kochia (Kochia scoparia) [15] = assay: Test A preemergence; settings: Bassia scoparia, pre-emergence, 240 h, Preemergence
Procedure, shortened: as §2

[16] = test system: pigweed (Amaranthus retroflexus); assay: Test A preemergence; settings: Amaranthus retroflexus, pre-emergence, 240 h, Preemergence
[17] = test system: giant foxtail (Setaria faberii); assay: Test A preemergence; settings: Setaria faberi, pre-emergence, 240 h, Preemergence
Procedure, shortened: as §2

[18] = 125 g ai/ha, visual rating about 10 d after treatment
[19] = 31 g ai/ha, 0 is no effect, 100 is complete control

For `Cc1ccncc1NC(=O)[C@H]1C(=O)N(C)C[C@@H]1c1ccc2c(c1)OC(F)(F)O2` [Compound 1351], which pest or weed control at 250 g/ha [1] is on record?
Its pest or weed control at 250 g/ha is 40%.

And the pest or weed control at 250 g/ha (rice (Oryra sativa))?
Its pest or weed control at 250 g/ha is 0%.

What about the pest or weed control at 250 g/ha [2] of the same compound?
The pest or weed control at 250 g/ha was 0%.

What about the pest or weed control at 250 g/ha [3] of the same compound?
The pest or weed control at 250 g/ha was 0%.

What about the pest or weed control at 125 g/ha [4, 18] of the same compound?
The pest or weed control at 125 g/ha was 0%.

And the pest or weed control at 31 g/ha [4, 19]?
Its pest or weed control at 31 g/ha is 0%.

And the plant injury at 125 g/ha (corn (Zea mays); [18])?
Its plant injury at 125 g/ha is 0%.

What about the plant injury at 31 g/ha (corn (Zea mays); [19]) of the same compound?
The plant injury at 31 g/ha was 0%.

What about the pest or weed control at 125 g/ha [5, 18] of the same compound?
The pest or weed control at 125 g/ha was 0%.

And the pest or weed control at 31 g/ha [5, 19]?
The pest or weed control at 31 g/ha was 0%.

What about the pest or weed control at 125 g/ha ([6]; 125 g ai/ha, visual rating about 10 d after treatment, read-out: Barnyardgrass plant response rating (0 to 100 scale, 0 no effect, 100 complete control)) of the same compound?
The pest or weed control at 125 g/ha was 0%.

And the pest or weed control at 31 g/ha ([6]; 31 g ai/ha, 0 is no effect, 100 is complete control, read-out: Barnyardgrass plant response rating (0 to 100 scale))?
The pest or weed control at 31 g/ha was 0%.

What about the pest or weed control at 125 g/ha [7, 18] of the same compound?
The pest or weed control at 125 g/ha was 0%.

What about the pest or weed control at 31 g/ha [7, 19] of the same compound?
The pest or weed control at 31 g/ha was 0%.

What about the pest or weed control at 125 g/ha (Kochia (Kochia scoparia) [8]; [18]) of the same compound?
Its pest or weed control at 125 g/ha is 0%.

What about the pest or weed control at 31 g/ha (Kochia (Kochia scoparia) [8]; [19]) of the same compound?
The pest or weed control at 31 g/ha was 0%.

And the pest or weed control at 125 g/ha [9, 18]?
Its pest or weed control at 125 g/ha is 0%.

And the pest or weed control at 31 g/ha [9, 19]?
Its pest or weed control at 31 g/ha is 0%.

What about the plant injury at 125 g/ha [10, 18] of the same compound?
The plant injury at 125 g/ha was 0%.

What about the plant injury at 31 g/ha [10, 19] of the same compound?
The plant injury at 31 g/ha was 0%.

What about the pest or weed control at 125 g/ha [11, 18] of the same compound?
The pest or weed control at 125 g/ha was 0%.

And the pest or weed control at 31 g/ha [11, 19]?
Its pest or weed control at 31 g/ha is 0%.

And the pest or weed control at 31 g/ha ([12]; 31 g ai/ha, 0 to 100 scale where 0 is no effect and 100 is complete control, read-out: Ragweed plant response rating)?
Its pest or weed control at 31 g/ha is 0%.

And the pest or weed control at 125 g/ha ([12]; 125 g ai/ha, 0 to 100 scale (0 no effect, 100 complete control), read-out: Plant response rating, Ragweed)?
The pest or weed control at 125 g/ha was 0%.

And the pest or weed control at 31 g/ha ([13]; 31 g ai/ha, 0 to 100 scale where 0 is no effect and 100 is complete control, read-out: Barnyardgrass plant response rating)?
The pest or weed control at 31 g/ha was 0%.

And the pest or weed control at 125 g/ha ([13]; 125 g ai/ha, 0 to 100 scale (0 no effect, 100 complete control), read-out: Plant response rating, Barnyardgrass)?
Its pest or weed control at 125 g/ha is 0%.

What about the pest or weed control at 31 g/ha ([14]; 31 g ai/ha, 0 to 100 scale where 0 is no effect and 100 is complete control, read-out: Ryegrass, Italian plant response rating) of the same compound?
Its pest or weed control at 31 g/ha is 0%.

What about the pest or weed control at 125 g/ha ([14]; 125 g ai/ha, 0 to 100 scale (0 no effect, 100 complete control), read-out: Plant response rating, Ryegrass, Italian) of the same compound?
The pest or weed control at 125 g/ha was 0%.

What about the pest or weed control at 31 g/ha (Kochia (Kochia scoparia) [15]; 31 g ai/ha, 0 to 100 scale where 0 is no effect and 100 is complete control, read-out: Kochia plant response rating) of the same compound?
Its pest or weed control at 31 g/ha is 0%.

And the pest or weed control at 125 g/ha (Kochia (Kochia scoparia) [15]; 125 g ai/ha, 0 to 100 scale (0 no effect, 100 complete control), read-out: Plant response rating, Kochia)?
Its pest or weed control at 125 g/ha is 0%.

What about the pest or weed control at 31 g/ha ([16]; 31 g ai/ha, 0 to 100 scale where 0 is no effect and 100 is complete control, read-out: Pigweed plant response rating) of the same compound?
The pest or weed control at 31 g/ha was 0%.

What about the pest or weed control at 125 g/ha ([16]; 125 g ai/ha, 0 to 100 scale (0 no effect, 100 complete control), read-out: Plant response rating, Pigweed) of the same compound?
Its pest or weed control at 125 g/ha is 0%.

What about the pest or weed control at 31 g/ha ([17]; 31 g ai/ha, 0 to 100 scale where 0 is no effect and 100 is complete control, read-out: Foxtail, Giant plant response rating) of the same compound?
Its pest or weed control at 31 g/ha is 0%.

What about the pest or weed control at 125 g/ha ([17]; 125 g ai/ha, 0 to 100 scale (0 no effect, 100 complete control), read-out: Plant response rating, Foxtail, Giant) of the same compound?
Its pest or weed control at 125 g/ha is 0%.
